pIC50, pKi: −log10 of the molar value.
Columns and labels:
Smo receptor = Smo receptor (Homo sapiens, UniProt Q99835); test: competitive binding assay displacing fluorescently-labeled Bodipy-Cyclopamine; conditions: displacement of Bodipy-Cyclopamine; assay described in WO2009074300; read-out: Ki, binding affinity with the Smo receptor
Hh pathway = test: alkaline phosphatase-based assay of Hh pathway inactivation; type: cell-based; conditions: alkaline phosphatase-based assay described in WO2009074300
Description: The level of inactivation of the Hh pathway resulting from this binding was determined using the alkaline phosphatase-based assay described in WO2009074300, resulting in an IC50 value below 30 nM.

Chain of Smo receptor (Q99835 28-787): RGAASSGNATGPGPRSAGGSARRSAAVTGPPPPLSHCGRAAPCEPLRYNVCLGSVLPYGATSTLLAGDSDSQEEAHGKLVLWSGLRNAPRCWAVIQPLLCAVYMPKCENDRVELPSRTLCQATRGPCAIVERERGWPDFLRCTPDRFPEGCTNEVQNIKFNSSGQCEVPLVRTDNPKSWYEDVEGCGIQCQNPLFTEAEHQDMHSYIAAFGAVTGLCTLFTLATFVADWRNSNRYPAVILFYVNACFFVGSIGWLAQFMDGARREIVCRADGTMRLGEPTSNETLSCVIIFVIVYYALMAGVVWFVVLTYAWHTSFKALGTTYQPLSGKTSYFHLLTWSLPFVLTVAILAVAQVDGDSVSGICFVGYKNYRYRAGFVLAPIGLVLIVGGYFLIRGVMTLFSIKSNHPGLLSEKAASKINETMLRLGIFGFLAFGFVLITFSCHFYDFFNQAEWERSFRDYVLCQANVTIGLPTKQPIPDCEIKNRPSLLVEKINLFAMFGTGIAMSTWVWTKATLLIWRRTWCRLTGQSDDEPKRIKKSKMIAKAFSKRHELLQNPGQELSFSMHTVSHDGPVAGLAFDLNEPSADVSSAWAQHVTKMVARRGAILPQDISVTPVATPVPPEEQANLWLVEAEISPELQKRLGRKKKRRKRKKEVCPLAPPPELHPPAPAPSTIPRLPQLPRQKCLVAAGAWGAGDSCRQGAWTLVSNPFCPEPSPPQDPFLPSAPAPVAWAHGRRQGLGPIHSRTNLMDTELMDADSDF

- pKi (Smo receptor): > 7.00
- pIC50 (Hh pathway): > 7.52
SMILES: Cc1ccc(-c2cc(N3CCC(C(=O)N4CCN(C)CC4)CC3)ccc2Cl)nc1 [Compound C, {1-[4-Chloro-3-(5-methyl-pyridin-2-yl)-phenyl]-piperidin-4-yl}-(4-methyl-piperazin-1-yl)-methanone]
